Biological target: α4β7 integrin (Homo sapiens (Human), UniProt P13612+P26010)
Test: α4β7 Integrin Cell Capture Assay
Assay type: cell-based
[1] = Table 2, capture of α4β7 expressing RPM18866 cells on MadCAM-1 extracellular domain-coated plate
[2] = RPMI8866 cells captured on MadCAM-1 extracellular domain-coated plate
[3] = Table 1, capture of α4β7 expressing RPM18866 cells on MadCAM-1 extracellular domain-coated plate

Sequence of α4β7 integrin (P13612 34-1032): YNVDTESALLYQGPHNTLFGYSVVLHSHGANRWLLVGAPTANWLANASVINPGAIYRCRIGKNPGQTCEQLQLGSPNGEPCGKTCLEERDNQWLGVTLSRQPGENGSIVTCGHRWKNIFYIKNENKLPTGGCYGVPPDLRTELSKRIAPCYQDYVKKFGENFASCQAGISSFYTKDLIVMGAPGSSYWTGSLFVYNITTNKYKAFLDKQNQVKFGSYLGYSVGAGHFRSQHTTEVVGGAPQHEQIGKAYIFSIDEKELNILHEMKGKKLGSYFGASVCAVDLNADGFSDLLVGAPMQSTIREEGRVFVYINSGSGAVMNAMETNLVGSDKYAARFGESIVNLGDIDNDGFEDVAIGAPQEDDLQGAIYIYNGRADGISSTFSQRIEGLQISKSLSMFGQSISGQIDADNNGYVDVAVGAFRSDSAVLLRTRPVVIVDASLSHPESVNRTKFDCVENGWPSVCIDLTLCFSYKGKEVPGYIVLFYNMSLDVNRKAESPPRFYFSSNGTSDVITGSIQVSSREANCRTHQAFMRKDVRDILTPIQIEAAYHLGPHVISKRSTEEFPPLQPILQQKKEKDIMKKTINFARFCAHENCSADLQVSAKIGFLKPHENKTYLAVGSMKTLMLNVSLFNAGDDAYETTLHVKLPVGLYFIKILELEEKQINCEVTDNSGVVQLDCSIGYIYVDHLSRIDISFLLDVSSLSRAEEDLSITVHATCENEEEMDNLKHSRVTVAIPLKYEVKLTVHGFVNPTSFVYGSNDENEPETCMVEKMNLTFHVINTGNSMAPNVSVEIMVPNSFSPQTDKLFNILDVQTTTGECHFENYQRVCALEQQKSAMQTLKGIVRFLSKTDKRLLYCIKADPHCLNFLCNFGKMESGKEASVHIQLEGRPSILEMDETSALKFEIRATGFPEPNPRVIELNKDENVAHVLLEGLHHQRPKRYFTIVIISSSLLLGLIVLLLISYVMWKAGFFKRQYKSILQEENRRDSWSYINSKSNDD
Sequence of α4β7 integrin (P26010 20-798): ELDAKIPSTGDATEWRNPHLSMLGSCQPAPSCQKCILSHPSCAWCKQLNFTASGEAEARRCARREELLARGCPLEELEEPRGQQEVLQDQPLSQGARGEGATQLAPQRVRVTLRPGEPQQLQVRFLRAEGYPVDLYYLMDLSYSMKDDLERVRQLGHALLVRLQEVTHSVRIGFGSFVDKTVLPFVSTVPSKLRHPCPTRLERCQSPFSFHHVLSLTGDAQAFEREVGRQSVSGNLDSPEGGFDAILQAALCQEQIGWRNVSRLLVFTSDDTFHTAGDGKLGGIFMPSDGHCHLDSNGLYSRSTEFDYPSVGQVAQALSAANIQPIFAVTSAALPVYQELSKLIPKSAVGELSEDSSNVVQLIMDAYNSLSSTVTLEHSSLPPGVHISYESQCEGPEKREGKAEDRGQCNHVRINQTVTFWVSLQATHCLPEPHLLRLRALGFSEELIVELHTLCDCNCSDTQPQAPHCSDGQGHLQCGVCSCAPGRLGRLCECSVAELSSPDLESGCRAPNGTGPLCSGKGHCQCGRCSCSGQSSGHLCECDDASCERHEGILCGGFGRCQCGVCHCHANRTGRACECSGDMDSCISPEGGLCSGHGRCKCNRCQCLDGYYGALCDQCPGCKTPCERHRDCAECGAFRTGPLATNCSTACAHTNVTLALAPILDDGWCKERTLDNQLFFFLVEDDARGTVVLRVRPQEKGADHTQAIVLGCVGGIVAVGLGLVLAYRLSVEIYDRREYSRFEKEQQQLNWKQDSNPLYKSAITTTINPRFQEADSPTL

| Structure (SMILES) | EC50 [1] [nM] | EC50 [3] [nM] | further results |
| --- | --- | --- | --- |
| Cn1c(C2CC2)cc(C(F)(F)F)c(-c2ccc(C[C@H](NC(=O)c3c(F)cc(N4CCOC[C@@H]4C(F)(F)F)cc3F)C(=O)O)c3cccnc23)c1=O [Example 158] | 0.3 |  |  |
| COc1cc(C)n(C)c(=O)c1-c1ccc(C[C@H](NC(=O)c2c(F)cc(N[C@H](C3CC3)C(F)(F)F)cc2F)C(=O)O)c2cccnc12 [Example 166] | 0.4 |  |  |
| CN1CCc2c(cc(-c3ccc(C[C@H](NC(=O)c4c(F)cc(N5CCOC[C@@H]5C(F)(F)F)cc4F)C(=O)O)c4cccnc34)c(=O)n2C)C1 [Example 437] |  |  | EC50 [2]: 0.261 nM |
| Cc1cc(C(F)(F)F)c(-c2ccc(C[C@H](NC(=O)c3c(F)cc(N4CCOC[C@@H]4C(F)(F)F)cc3F)C(=O)O)c3ccc(C(F)(F)F)nc23)c(=O)n1C [Example 231] | 0.9 |  |  |
| N#Cc1cc(Cl)c(-c2ccc(C[C@H](NC(=O)c3c(Cl)cccc3Cl)C(=O)O)c3cccnc23)c(Cl)c1 [Example 4, (S)-3-(8-(2,6-dichloro-4-cyanophenyl)quinolin-5-yl)-2-(2,6-dichlorobenzamido)propanoic acid] |  | 6.7 |  |
| Cc1ccnc(-c2ccc(C[C@H](NC(=O)c3c(F)cc(N4CCOC[C@@H]4C(F)(F)F)cc3F)C(=O)O)c3cccnc23)c1C(F)(F)F [Example 223] | 2.2 |  |  |
| CCOCc1cc(OC)c(-c2ccc(C[C@H](NC(=O)c3c(Cl)cc4[nH]c(Cc5ccccc5)cc4c3Cl)C(=O)O)c3cccnc23)c(OC)c1 [Example 297] | 7.9 |  |  |
| Cc1cc(N2CCOC[C@@H]2C(F)(F)F)cc(F)c1C(=O)N[C@@H](Cc1ccc(-c2nc(C)c(C)n(C)c2=O)c2ncc(F)cc12)C(=O)O [Example 452] |  |  | EC50 [2]: 0.232 nM |
| Cn1cc(C(F)(F)F)cc(-c2ccc(C[C@H](NC(=O)c3c(F)cc(N4CCOC[C@@H]4C(F)(F)F)cc3F)C(=O)O)c3cccnc23)c1=O [Example 98, (S)-2-(2,6-difluoro-4-((R)-3-(trifluoromethyl)morpholino)benzamido)-3-(8-(1-methyl-2-oxo-5-(trifluoromethyl)-1,2-dihydropyridin-3-yl)quinolin-5-yl)propanoic acid] |  | 1.4 |  |
| CC(C)(O)[C@H](F)CNC(=O)c1cc(F)c(C(=O)N[C@@H](Cc2ccc(-c3ccc(C#N)cc3Cl)c3ncccc23)C(=O)O)c(F)c1 [Example 322] | 16.2 |  |  |
| N#Cc1ccc(-c2ccc(C[C@H](NC(=O)c3c(F)ccc(OC(F)F)c3F)C(=O)O)c3cccnc23)c(Cl)c1 [Example 16, (S)-3-(8-(2-chloro-4-cyanophenyl)quinolin-5-yl)-2-(3-(difluoromethoxy)-2,6-difluorobenzamido)propanoic acid] |  | 67.4 |  |
| Cc1cc(C(F)(F)F)c(-c2ccc(C[C@H](NC(=O)c3c(F)cc(N4C[C@H](C)OC[C@@H]4C(F)(F)F)cc3F)C(=O)O)c3cccnc23)c(=O)n1C [Example 198] | 1.4 |  |  |
| CC(=O)Cc1cc(F)c(C(=O)N[C@@H](Cc2ccc(-c3ccc(C#N)cc3Cl)c3ncccc23)C(=O)O)c(F)c1 [Example 221] | 48.2 |  |  |
| CC[C@@H](Nc1cc(F)c(C(=O)N[C@@H](Cc2ccc(-c3c(C(F)(F)F)c4ccncc4n(C)c3=O)c3ncccc23)C(=O)O)c(F)c1)C(F)(F)F [Example 111, (S)-2-(2,6-difluoro-4-(((R)-1,1,1-trifluorobutan-2-yl)amino)benzamido)-3-(8-(1-methyl-2-oxo-4-(trifluoromethyl)-1,2-dihydro-1,7-naphthyridin-3-yl)quinolin-5-yl)propanoic acid] |  | 0.1 |  |
| CC[C@@H](Nc1cc(F)c(C(=O)N[C@@H](Cc2ccc(-c3c(C)c4cc(F)ccc4n(C)c3=O)c3ncccc23)C(=O)O)c(F)c1)C(F)(F)F (atropisomer, axis not shown) [Example 109, (S)-2-(2,6-difluoro-4-(((R)-1,1,1-trifluorobutan-2-yl)amino)benzamido)-3-(6-fluoro-1,4-dimethyl-2-oxo-1,2-dihydro-[3,8′-biquinolin]-5′-yl)propanoic acid] |  | 0.3 |  |
| CC[C@@H](Nc1cc(F)c(C(=O)N[C@@H](Cc2ccc(-c3nn(C)c(=O)cc3C)c3ncccc23)C(=O)O)c(F)c1)C(F)(F)F [Example 119, (S)-2-(2,6-difluoro-4-(((R)-1,1,1-trifluorobutan-2-yl)amino)benzamido)-3-(8-(1,4-dimethyl-6-oxo-1,6-dihydropyridazin-3-yl)quinolin-5-yl)propanoic acid] |  | 20.5 |  |
| COCCNC(=O)c1cc(F)c(C(=O)N[C@@H](Cc2ccc(-c3ccc(C#N)cc3Cl)c3ncccc23)C(=O)O)c(F)c1 [Example 178] | 37.1 |  |  |
| CC[C@@H](Nc1cc(F)c(C(=O)N[C@@H](Cc2ccc(-c3c(C(F)(F)F)cc(C)n(C)c3=O)c3ncccc23)C(=O)O)c(F)c1)C(F)(F)F (single isomer, unassigned) [Example 107] |  | 0.2 |  |
| Cc1cc(N2CCOC[C@@H]2C(F)(F)F)cc(F)c1C(=O)N[C@@H](Cc1ccc(-n2c(=O)c3ccncc3n(C)c2=O)c2ncccc12)C(=O)O (single isomer, unassigned) [Example 407] |  |  | EC50 [2]: 0.162 nM |
| Cc1cc(N2CCOC[C@@H]2C(F)(F)F)cc(F)c1C(=O)N[C@@H](Cc1ccc(-c2cc(C)c(C)n(C)c2=O)c2ncccc12)C(=O)O [Example 455] |  |  | EC50 [2]: 0.211 nM |

| Structure (SMILES) | EC50 [1] [nM] | EC50 [3] [nM] | further results |
| --- | --- | --- | --- |
| C[C@@H](NC(=O)c1cc(F)c(C(=O)N[C@@H](Cc2ccc(-c3ccc(C#N)cc3Cl)c3ncccc23)C(=O)O)c(F)c1)C(F)(F)F [Example 154] | 44.6 |  |  |
| Cc1cc(N2CCOC[C@@H]2C(F)(F)F)cc(F)c1C(=O)N[C@@H](Cc1ccc(-n2c(=O)c3c(n(C)c2=O)CCOC3)c2ncccc12)C(=O)O [Example 412] |  |  | EC50 [2]: 0.091 nM |
| CN1CCc2nc(-c3ccc(C[C@H](NC(=O)c4c(F)cc(N5CCOC[C@@H]5C(F)(F)F)cc4F)C(=O)O)c4cccnc34)ncc2C1 [Example 312] | 12.5 |  |  |
| Cc1cc(N2CCOC[C@@H]2C(F)(F)F)cc(F)c1C(=O)N[C@@H](Cc1ccc(-c2cc(C(F)(F)F)c(C)n(C)c2=O)c2ncccc12)C(=O)O [Example 448] |  |  | EC50 [2]: 0.307 nM |
| Cc1cc(N2CCOC[C@@H]2C(F)(F)F)cc(F)c1C(=O)N[C@@H](Cc1ccc(-n2c(=O)c3c(n(C)c2=O)COCC3)c2ncccc12)C(=O)O [Example 411] |  |  | EC50 [2]: 0.06 nM |
| CC[C@@H](Nc1cc(F)c(C(=O)N[C@@H](Cc2ccc(-c3c(C(F)(F)F)cc(C)n(C)c3=O)c3ncc(F)cc23)C(=O)O)c(F)c1)C(F)(F)F [Example 140, (S)-2-(2,6-difluoro-4-(((R)-1,1,1-trifluorobutan-2-yl)amino)benzamido)-3-(8-(1,6-dimethyl-2-oxo-4-(trifluoromethyl)-1,2-dihydropyridin-3-yl)-3-fluoroquinolin-5-yl)propanoic acid] |  | 0.5 |  |
| O=C(N[C@@H](Cc1ccc(-c2c(Cl)cncc2Cl)c2ncccc12)C(=O)O)c1c(F)cccc1F [Example 20, (S)-3-(8-(3,5-dichloropyridin-4-yl)quinolin-5-yl)-2-(2,6-difluorobenzamido)propanoic acid] |  | 186 |  |
| Cc1cc(C(F)(F)F)c(-c2ccc(C[C@H](NC(=O)c3c(F)cc(N4CCOC[C@H]4CC(F)(F)F)cc3F)C(=O)O)c3cccnc23)c(=O)n1C [Example 254] | 3.2 |  |  |
| Cc1c(N(C)C)cn(C)c(=O)c1-c1ccc(C[C@H](NC(=O)c2c(F)cc(N3CCOC[C@@H]3C(F)(F)F)cc2F)C(=O)O)c2cccnc12 [Example 242] | 2.8 |  |  |
| CC[C@@H](Nc1cc(F)c(C(=O)N[C@@H](Cc2ccc(-c3c(C(F)(F)F)cc(C)n(C)c3=O)c3ncc(N(C)C)cc23)C(=O)O)c(F)c1)C(F)(F)F [Example 139, (S)-2-(2,6-difluoro-4-(((R)-1,1,1-trifluorobutan-2-yl)amino)benzamido)-3-(8-(1,6-dimethyl-2-oxo-4-(trifluoromethyl)-1,2-dihydropyridin-3-yl)-3-(dimethylamino)quinolin-5-yl)propanoic acid] |  | 11.7 |  |
| CC[C@@H](Nc1cc(F)c(C(=O)N[C@@H](Cc2ccc(-c3c(Cl)cc(C)n(C)c3=O)c3ncccc23)C(=O)O)c(F)c1)C(F)(F)F [Example 343] | 0.7 |  |  |
| CC[C@@H](Nc1cc(F)c(C(=O)N[C@@H](Cc2ccc(-c3c(C)c4cc(F)ccc4n(C)c3=O)c3ncccc23)C(=O)O)c(F)c1)C(F)(F)F (atropisomer, axis not shown) [Example 185] | 1 |  |  |
| Cn1c(=O)c(-c2ccc(C[C@H](NC(=O)c3c(F)cc(N4CCOC[C@H]4C(F)(F)F)cc3F)C(=O)O)c3cccnc23)cc2cnccc21 [Example 192] | 1.4 |  |  |
| CC[C@@H](Nc1cc(F)c(C(=O)N[C@@H](Cc2ccc(-c3c(C)c(Cl)cn(C)c3=O)c3ncccc23)C(=O)O)c(F)c1)C(F)(F)F [Example 200] | 1.5 |  |  |
| Cc1cc(C(F)(F)F)c(-c2ccc(C[C@H](NC(=O)c3c(F)cc(N4CCC[C@@H]4C(F)(F)F)cc3F)C(=O)O)c3cccnc23)c(=O)n1C [Example 132, (S)-2-(2,6-difluoro-4-((R)-2-(trifluoromethyl)pyrrolidin-1-yl)benzamido)-3-(8-(1,6-dimethyl-2-oxo-4-(trifluoromethyl)-1,2-dihydropyridin-3-yl)quinolin-5-yl)propanoic acid] |  | 1.3 |  |
| Cc1c(-c2ccc(C[C@H](NC(=O)c3c(F)cc(N[C@H](C)C(F)(F)F)cc3F)C(=O)O)c3cccnc23)c(=O)n(C)c(=O)n1C [Example 340] | 0.6 |  |  |
| CCOCc1cc(OC)c(-c2c(F)cc(C[C@H](NC(=O)c3c(F)cccc3F)C(=O)O)c3cccnc23)c(OC)c1 [Example 40, (S)-2-(2,6-difluorobenzamido)-3-(8-(4-(ethoxymethyl)-2,6-dimethoxyphenyl)-7-fluoroquinolin-5-yl)propanoic acid] |  | 8.6 |  |
| CC[C@@H](Nc1cc(F)c(C(=O)N[C@@H](Cc2ccc(-c3c(C(F)(F)F)cc(C)n(C)c3=O)c3ncccc23)C(=O)O)c(F)c1)C(F)(F)F [Example 91, (S)-2-(2,6-difluoro-4-(((R)-1,1,1-trifluorobutan-2-yl)amino)benzamido)-3-(8-(1,6-dimethyl-2-oxo-4-(trifluoromethyl)-1,2-dihydropyridin-3-yl)quinolin-5-yl)propanoic acid] |  | 0.3 |  |
| CC[C@@H](Nc1cc(F)c(C(=O)N[C@@H](Cc2ccc(-c3nccc(C)c3C)c3ncccc23)C(=O)O)c(F)c1)C(F)(F)F [Example 307] | 11.4 |  |  |

From patent publication US11116760B2 (Gilead Sciences, Inc., priority 2018, dated 2021)
